# Results as given in ChEMBL document CHEMBL4257578, “6'-Fluoro-3-deazaneplanocin: Synthesis and antiviral properties, including Ebola” (Bioorg Med Chem Lett, 2018).
# Calls of active or inactive are those of the source. The calls are words filed in the database; no cut-off is given here.
# Assays:
# Ebolavirus [1] = test: Antiviral activity against Ebolavirus subtype Zaire infected in African green monkey Vero E6 cells; assay type: functional, Ebola virus - Zaire (1995); conditions: Orthoebolavirus, Vero C1008
# [2] = Cytotoxicity against African green monkey Vero E6 cells assessed as reduction in cell viability; assay type: cell-based; conditions: chlorocebus sabaeus, Vero E6 cells (Vero C1008)
# [3] = Selectivity index, ratio of CC50 for African green monkey Vero E6 cells to EC50 for Ebolavirus subtype Zaire; assay type: toxicity, Vero C1008; conditions: read-out: Ratio CC50/EC50
# Ebolavirus [4] = test: Antiviral activity against Ebolavirus infected in African green monkey Vero cells; assay type: functional, cell-based; conditions: Orthoebolavirus
# [5] = Cytotoxicity against African green monkey Vero cells assessed as reduction in cell viability; assay type: cell-based; conditions: chlorocebus sabaeus
# [6] = Selectivity index, ratio of CC50 for African green monkey Vero cells to EC50 for Ebolavirus; assay type: toxicity; conditions: read-out: Ratio CC50/EC50
# Measles morbillivirus = test: Antiviral activity against Measles virus infected in African green monkey Vero 76 cells; assay type: functional, organism-based
# [7] = Cytotoxicity against African green monkey Vero 76 cells assessed as reduction in cell viability; assay type: cell-based; conditions: chlorocebus sabaeus
# [8] = Selectivity index, ratio of CC50 for African green monkey Vero 76 cells to EC50 for measles virus; assay type: toxicity; conditions: read-out: Ratio CC50/EC50
# Influenza A virus = test: Antiviral activity against Influenza A virus (H1N1) infected in MDCK cells; assay type: functional, organism-based
# [9] = Cytotoxicity against MDCK cells assessed as reduction in cell viability; assay type: cell-based, Canis lupus familiaris; conditions: dog
# [10] = Selectivity index, ratio of CC50 for MDCK cells to EC50 for Influenza A virus (H1N1); assay type: toxicity; conditions: dog, read-out: Ratio CC50/EC50
# Pichinde virus = test: Antiviral activity against Pichinde virus infected in African green monkey Vero; assay type: functional, organism-based
# [11] = Selectivity index, ratio of CC50 for African green monkey Vero cells to EC50 for Pichinde virus; assay type: toxicity; conditions: read-out: Ratio CC50/EC50
# [12] = molecular target: AdoHcyase_NAD domain-containing protein (Oryctolagus cuniculus, UniProt G1SVH0); test: Inhibition of SAHase from rabbit erythrocytes using S-adenosyl-L-homocysteine as substrate preincubated for 5 mins followed by substrate addition and measured after 1 hr by Measure-iTTM thiol quantitation reagent based assay
# AdoHcyase_NAD domain-containing protein, sequence (G1SVH0 whole entry, the tested form may be a part): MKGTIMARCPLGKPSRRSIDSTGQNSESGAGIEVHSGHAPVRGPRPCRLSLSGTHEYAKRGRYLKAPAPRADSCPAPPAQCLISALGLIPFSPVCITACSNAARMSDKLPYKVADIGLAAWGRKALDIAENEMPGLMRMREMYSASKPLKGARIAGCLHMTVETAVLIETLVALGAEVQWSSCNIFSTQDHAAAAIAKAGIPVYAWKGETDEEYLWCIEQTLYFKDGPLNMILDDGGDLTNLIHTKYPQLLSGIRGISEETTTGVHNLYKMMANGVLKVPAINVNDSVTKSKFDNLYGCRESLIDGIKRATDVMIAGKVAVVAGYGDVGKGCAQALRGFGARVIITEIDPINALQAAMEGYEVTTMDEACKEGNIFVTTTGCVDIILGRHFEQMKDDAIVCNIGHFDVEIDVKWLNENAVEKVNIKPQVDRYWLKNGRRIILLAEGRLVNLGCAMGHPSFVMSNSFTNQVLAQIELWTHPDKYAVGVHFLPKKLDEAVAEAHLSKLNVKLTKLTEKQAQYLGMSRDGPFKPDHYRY
# Chikungunya virus = test: Antiviral activity against Chikungunya virus infected in African green monkey Vero 76 cells; assay type: functional, organism-based
# dengue virus type 2 = test: Antiviral activity against Dengue virus 2 infected in African green monkey Vero 76 cells; assay type: functional, organism-based
# Poliovirus 1 = test: Antiviral activity against Human poliovirus 1 infected in African green monkey Vero 76 cells; assay type: functional, organism-based
# Punta Toro virus = test: Antiviral activity against Punta Toro virus infected in African green monkey Vero 76 cells; assay type: functional, organism-based
# Rift Valley fever virus = test: Antiviral activity against Rift Valley fever virus infected in African green monkey Vero 76 cells; assay type: functional, organism-based
# Tacaribe virus = test: Antiviral activity against Tacaribe virus infected in African green monkey Vero cells; assay type: functional, organism-based; conditions: Mammarenavirus tacaribeense
# [13] = test system: Venezuelan equine encephalitis virus; test: Antiviral activity against Venezuelan equine encephalitis virus infected in African green monkey Vero 76 cells; assay type: functional, organism-based
# West Nile virus = test: Antiviral activity against West Nile virus infected in African green monkey Vero 76 cells; assay type: functional, organism-based
# Yellow fever virus = test: Antiviral activity against Yellow fever virus infected in African green monkey Vero cells; assay type: functional, organism-based
# Norovirus = test: Antiviral activity against Norovirus infected in human HG23 cells; assay type: functional, organism-based
# Human betaherpesvirus 5 = test: Antiviral activity against Human cytomegalovirus infected in human HFF cells; assay type: functional, organism-based
# Hepatitis B virus = test: Antiviral activity against Hepatitis B virus infected in human HepG2.2.15 cells; assay type: functional, organism-based
# Human adenovirus 5 = test: Antiviral activity against Human adenovirus 5 infected in human A549 cells; assay type: functional, organism-based
# Usutu virus = test: Antiviral activity against Usutu virus infected in African green monkey Vero 76 cells; assay type: functional, organism-based
# [14] = test system: Japanese encephalitis virus; test: Antiviral activity against Japanese […] encephalitis virus infected in African green monkey Vero 76 cells; assay type: functional, organism-based
smiles,measurement,setting,value
Nc1ccnc2c1ncn2[C@@H]1C=C(CO)[C@@H](O)[C@H]1O,EC50,Ebolavirus [1],4 µM
same,CC50,[2],60 µM
same,selectivity ratio,[3],15
Nc1cccc2c1ncn2[C@@H]1C(F)=C(CO)[C@@H](O)[C@H]1O,EC50,Ebolavirus [4],< 0.36 µM
same,CC50,[5],125 to 360 µM
same,selectivity ratio,[6],> 347
same,EC50,Measles morbillivirus,< 0.36 µM
same,CC50,[7],115 µM
same,selectivity ratio,[8],> 320
same,EC50,Influenza A virus,20.2 µM
same,CC50,[9],133 µM
same,selectivity ratio,[10],6.6
same,EC50,Pichinde virus,57.6 µM
same,selectivity ratio,[11],> 6.3
same,IC50,[12],0.00869 µM
same,Activity,Chikungunya virus,inactive
same,Activity,dengue virus type 2,inactive
same,Activity,Poliovirus 1,inactive
same,Activity,Punta Toro virus,inactive
same,Activity,Rift Valley fever virus,inactive
same,Activity,Tacaribe virus,inactive
same,Activity,[13],inactive
same,Activity,West Nile virus,inactive
same,Activity,Yellow fever virus,inactive
same,Activity,Norovirus,inactive
same,Activity,Human betaherpesvirus 5,inactive
same,Activity,Hepatitis B virus,inactive
same,Activity,Human adenovirus 5,inactive
same,Activity,Usutu virus,inactive
same,Activity,[14],inactive
Nc1cccc2c1ncn2[C@@H]1C=C(CO)[C@@H](O)[C@H]1O,EC50,Ebolavirus [1],2 µM
same,CC50,[2],> 1700 µM
same,selectivity ratio,[3],> 850
